Tests used:
HEK293 cells = format: cell-based; conditions: for Cytoxicity reduced (Multiple): HEK293, 72 hours, MTT, IC50 of modified compound compared to its corresponding cytotoxic compound, approximate multiples
Method: Toxicity detection method: a standard universal test program was used to perform the in vitro cytotoxicity test. 2500 HEK293 cells were cultured in a 96-well plate, and allowed to grow overnight. Cytotoxic compounds and their corresponding conjugated compounds were added into each well in different concentrations, cultivated with the cells at 37° C. for 72 hours, and then treated with MTT reagents. OD changes were read. The approximate multiples of the toxicity change were obtained by comparing the IC50 of the modified compounds to their corresponding cytotoxic compounds.

[1] = test system: Human breast cancer MDA-MB231 cells; format: in vivo, nude mice; conditions: for Effect on tumor growth, in words: compared to control, camptothecin, capecitabine and daunorubicin groups
Method: 1) Human breast cancer MDA-MB231 cells were purchased from American type culture collection (ATCC) and identified according the specification provided by ATCC. Cells were cultivated in […] (DMEM culture medium) containing 10% fetal bovine serum at 37° C. and 5% CO2. The cells were passaged for every three days and cells within the 15th passage were used.
2) Production of tumor. 5×10^6 MDA-MB231 cells were subcutaneously injected to the back of the nude mice. Mice were randomly grouped after the tumor reached at least 100 mm^3. Then treatment began and the day on which the treatment began was day 1.
3) Course of treatment. […] The drugs were administered once weekly for four weeks.
When R1 is 2-(2-Methoxyethoxy)Acetyl, and R3 is Ala, activation study and efficacy study were carried out by using compounds having different cleavable linker. The study methods are identical to those in Examples 10, 11 and 12. The in vitro activation efficiency was tested by asparagine endopeptidase and the tumor inhibition rate was tested by using human breast cancer MDA-MB231 model. […]

Human colon cancer HT-29 = assay: Multiple tumor models in nude mice: HT-29; format: in vivo
Method: (§1) 1) Corresponding tumor cells were purchased from American type culture collection (ATCC) and identified according the specification provided by ATCC. Cells were cultivated in DMEM culture solution containing 10% fetal bovine serum at 37° C. and 5% CO2. The cells were passaged for every three days and cells within the 15th passage were used.
(§2) 2) Production of tumor. 5×10^6 corresponding cells were subcutaneously injected to the back of the nude mice. Mice were randomly grouped after the tumor reached at least 100 mm^3. Then treatment began and the day on which the treatment began was day 1.
(§3) 3) Course of treatment. […] The control group was administered by physiological saline. Animals were administered once weekly for three weeks.
(§4) 3) Course of treatment. According to the clinical application of A1, A1 was administered in a dose of ⅙ MTD, i.v., 17.6 μmol/kg. The control group was administered by physiological saline. Animals were administered once weekly for three weeks.
(§5) 3) Course of treatment. According to the clinical application of B1, B1 was administered in a dose of ⅙ MTD, i.v., 17.6 μmol/kg. The control group was administered by physiological saline. Animals were administered once weekly for three weeks.
as §3, §3

[2] = test system: Human renal cancer OS-RC-2; assay: Multiple tumor models in nude mice: OS-RC-2; format: in vivo
Method: as §1, §2, §3, §4, §5, §3, §3

[3] = test system: Human pancreatic cancer Panc-1; assay: Multiple tumor models in nude mice: Panc-1; format: in vivo
Method: as §1, §2, §3, §4, §5, §3, §3

Human liver cancer Hepg2 = assay: Multiple tumor models in nude mice: Hepg2; format: in vivo
Method: as §1, §2, §3, §4, §5, §3, §3

[4] = test system: Human non-small cell lung cancer A549; assay: Multiple tumor models in nude mice: A549; format: in vivo
Method: as §1, §2, §3, §4, §5, §3, §3

[5] = test system: Human breast cancer MDA-MB435; assay: Multiple tumor models in nude mice: MDA-MB435; format: in vivo
Method: as §1, §2, §3, §4, §5, §3, §3

[6] = Multiple tumor models in nude mice: HT1080; format: in vivo; conditions: Human colon caner HT1080
Method: as §1, §2, §3, §4, §5, §3, §3

[7] = test system: Human chronic leukemia K562; assay: Multiple tumor models in nude mice: K562; format: in vivo
Method: as §1, §2, §3, §4, §5, §3, §3

[8] = MDA-MB231, nude mice, IV 13.2 μmol/kg once weekly for four weeks, Day 10
[9] = MDA-MB231, nude mice, IV 13.2 μmol/kg once weekly for four weeks, Day 24
[10] = S1′ i.v. 17.6 μmol/kg once weekly for three weeks
[11] = Table 29, i.v. 17.6 μmol/kg once weekly for three weeks
[12] = Table 41, i.v. 17.6 μmol/kg once weekly for three weeks
[13] = Table 51, 25 mg/kg once weekly for three weeks

4-N—(N—(N—(N-(6-maleimido caproyl)-L-alanyl)-L-alanyl)-L-asparaginyl)-amino benzyl alcohol-MMAE-carbamate [Compound S6]
Cytoxicity reduced (Multiple) (HEK293 cells): 35 Multiple | Cytoxicity reduced (Multiples) (HEK293 cells; different cleavable linkers of MMAE and Doxorubicin): 35 Multiples | Inhibitory rate on tumor (%) Day 10 [1, 8]: 23% | Size of tumor (mm^3) Day 10 [1, 8]: 235.5 ± 56.3 mm^3 | Inhibitory rate on tumor (%) Day 24 [1, 9]: 45.3% | Effect on tumor growth, in words [1]: less efficacy | tumor inhibition rate (%) ([1]; human breast cancer MDA-MB231 model, different cleavable linkers): 45.4%

COCCOCC(=O)N[C@H](C)C(=O)N[C@H](C)C(=O)N[C@H](CC(N)=O)C(=O)Nc1ccc(COC(=O)OC(C(=O)OC2C[C@@]3(O)C(OC(=O)c4ccccc4)[C@@H]4C5(OC(C)=O)COC5C[C@H](O)[C@@]4(C)C(=O)[C@H](OC(C)=O)C(=C2C)C3(C)C)[C@@H](NC(=O)c2ccccc2)c2ccccc2)cc1 (stereo in doubt) [S1′, 2-(2-methoxyethoxy) acetylamino-L-Ala-L-Ala-L-Asn-p-amino-benzyl-paclitaxel]
inhibitory rate on tumor (Day 26) (Human colon cancer HT-29; [10]): 89.7% | inhibitory rate on tumor (Day 26) [2, 10]: 85.7% | inhibitory rate on tumor (Day 26) [3, 10]: 88.59% | inhibitory rate on tumor (Day 26) (Human liver cancer Hepg2; [10]): 84.3% | inhibitory rate on tumor (Day 26) [4, 10]: 94.6% | inhibitory rate on tumor (Day 26) [5, 10]: 90.7% | inhibitory rate on tumor (Day 26) [6, 10]: 94.3% | inhibitory rate on tumor (Day 26) [7, 10]: 77.9%

COCCOCC(=O)NCCCC[C@H](NC(=O)COCCOC)C(=O)N[C@H](C)C(=O)N[C@H](C)C(=O)N[C@H](CC(N)=O)C(=O)Nc1ccc(COC(=O)OC(C(=O)OC2C[C@@]3(O)[C@@H](OC(=O)c4ccccc4)[C@H]4[C@](C)(C(=O)[C@H](OC(C)=O)C(=C2C)C3(C)C)[C@@H](O)CC2OC[C@]24OC(C)=O)[C@@H](NC(=O)c2ccccc2)c2ccccc2)cc1 (some centres unmarked) [Compound A1]
inhibitory rate on tumor (Day 26) (Human colon cancer HT-29; [11]): 87.5% | inhibitory rate on tumor (Day 26) [2, 11]: 86.6% | inhibitory rate on tumor (Day 26) [3, 11]: 89.2% | inhibitory rate on tumor (Day 26) (Human liver cancer Hepg2; [11]): 85.4% | inhibitory rate on tumor (Day 26) [4, 11]: 95.3% | inhibitory rate on tumor (Day 26) [5, 11]: 91.2% | inhibitory rate on tumor (Day 26) [6, 11]: 95.6% | inhibitory rate on tumor (Day 26) [7, 11]: 76.9%

COCCOCC(=O)NCCCC[C@H](NC(=O)COCCOC)C(=O)N[C@H](C)C(=O)N[C@H](C)C(=O)N[C@H](CC(N)=O)C(=O)Nc1ccc(COC(=O)OC(C(=O)OC2C[C@@]3(O)[C@@H](OC(=O)c4ccccc4)[C@H]4[C@](C)(C(=O)[C@H](O)C(=C2C)C3(C)C)[C@@H](O)CC2OC[C@]24OC(C)=O)[C@@H](NC(=O)OC(C)(C)C)c2ccccc2)cc1 (some centres unmarked) [Compound B1]
inhibitory rate on tumor (Day 26) (Human colon cancer HT-29; [12]): 74.56% | inhibitory rate on tumor (Day 26) [2, 12]: 86.67% | inhibitory rate on tumor (Day 26) [3, 12]: 73.56% | inhibitory rate on tumor (Day 26) (Human liver cancer Hepg2; [12]): 81.56% | inhibitory rate on tumor (Day 26) [4, 12]: 74.56% | inhibitory rate on tumor (Day 26) [5, 12]: 78.84% | inhibitory rate on tumor (Day 26) [6, 12]: 84.46% | inhibitory rate on tumor (Day 26) [7, 12]: 72.56%

COCCOCC(=O)N[C@H](C)C(=O)N[C@H](C)C(=O)N[C@H](CC(N)=O)C(=O)Nc1ccc(COC(=O)OC(C(=O)OC2C[C@@]3(O)[C@@H](OC(=O)c4ccccc4)[C@H]4[C@](C)(C(=O)[C@H](O)C(=C2C)C3(C)C)[C@@H](O)CC2OC[C@]24OC(C)=O)[C@@H](NC(=O)OC(C)(C)C)c2ccccc2)cc1 (stereo partly drawn) [Compound D1, 2-(2-methoxyethoxy) acetyl-L-Ala-L-Ala-L-Asn-4-amino benzyl-Docetaxel]
inhibitory rate on tumor (Day 26) (Human colon cancer HT-29; [13]): 68.6% | inhibitory rate on tumor (Day 26) [2, 13]: 87.7% | inhibitory rate on tumor (Day 26) [3, 13]: 89.4% | inhibitory rate on tumor (Day 26) (Human liver cancer Hepg2; [13]): 75.7% | inhibitory rate on tumor (Day 26) [4, 13]: 90.4% | inhibitory rate on tumor (Day 26) [5, 13]: 93.5% | inhibitory rate on tumor (Day 26) [6, 13]: 94.6% | inhibitory rate on tumor (Day 26) [7, 13]: 84.6%

CCCCCOC(=O)Nc1nc(=O)n([C@@H]2O[C@H](C)[C@@H](OC(=O)OCc3ccc(NC(=O)[C@H](CC(N)=O)NC(=O)[C@H](C)NC(=O)[C@H](C)NC(=O)CCCCCCC(=O)NO)cc3)[C@H]2O)cc1F [Compound S3, 4-N—(N—(N—(N-(8-(N-hydroxylamino)-1,8-octandioic acid-1-monoacyl)-L-alanyl)-L-alanyl)-L-asparaginyl)-amino benzyl alcohol-capecitabine-carbonic acid diester]
Cytoxicity reduced (Multiple) (HEK293 cells): 78 Multiple | Size of tumor (mm^3) Day 10 [1, 8]: 85.67 ± 36.42 mm^3 | Size of tumor (mm^3) Day 24 [1, 9]: 0 mm^3 | Effect on tumor growth, in words [1]: strong inhibitory effect on tumor growth

COc1cccc2c1C(=O)c1c(O)c3c(c(O)c1C2=O)C[C@@](O)(C(C)=O)C[C@@H]3O[C@H]1C[C@H](NC(=O)OCc2ccc(NC(=O)[C@H](CC(N)=O)NC(=O)[C@H](C)NC(=O)[C@H](C)NC(=O)CCCCCN3C(=O)C=CC3=O)cc2)[C@H](O)[C@H](C)O1 [Compound S5, 4-N—(N—(N—(N-(6-maleimidocaproyl)-L-alanyl)-L-alanyl)-L-asparaginyl)-amino benzyl alcohol-daunorubicin-carbamate]
Cytoxicity reduced (Multiple) (HEK293 cells): 125 Multiple | Size of tumor (mm^3) Day 10 [1, 8]: 63.67 ± 46.64 mm^3 | Size of tumor (mm^3) Day 24 [1, 9]: 46.45 ± 19.43 mm^3 | Effect on tumor growth, in words [1]: strong inhibitory effect on tumor growth

Reference: US10682371B2, “Small molecule conjugates specifically activated in tumor microenvironment for targeting and use thereof” (priority 2014, dated 2020)
